Structures can show the parent of a compound that is named as a salt.
Legend:
[1] = cited from earlier work
[2] = single oral dose of 5 mg delayed release tablet, fasting
Method: Male and female study participants (in equal proportions) were enrolled in the study. A total of 54 normal, healthy, adult, human study participants were enrolled. All subjects either received test product (test) or reference product (reference) in each period according to the randomization schedule after ensuring maintenance of pre-dose restrictions (fasting for 10 hours prior to administration in sitting posture with 240±2 mL of drinking water at ambient temperature).
A washout period of 7 days was observed between both study periods. Study restrictions with respect to fluid intake and sitting positions were implemented during the restriction periods throughout the study in all periods.
Study participants were instructed not to break, cut, and chew the tablet (test or reference) but to swallow whole and were asked to take it with the specified quantity of water. Water intake was not allowed for 1 hour before dosing until 1 hour after dosing except while administration of the dose. After dosing, the participants remained in sitting position for first two hours. On dosing days, meals were given as per the following schedule. […]
The actual post-dose time of collection was used in the calculation of the above pharmacokinetic parameters. Drug concentrations that are below limit of quantification (BLQ) were treated as “zero” in all pharmacokinetic and statistical calculations. […]

[3] = cited from earlier work; remark: listed apart in the source

Row | Compound | mean volume of distribution ([1]; human, in vivo) | tmax ([1]; oral galantamine) | plasma benzgalantamine concentration profile after test tablet [2] | gastrointestinal adverse events ([3]; intranasal, twice daily dose of 11 mg) | tolerability ([3]; intranasal, up to a twice daily dose of 22 mg) | administered compound not cleaved to galantamine, observed in blood ([3]; nasal administration, previous studies)
1 | COc1ccc2c3c1O[C@H]1C[C@@H](O)C=C[C@@]31CCN(C)C2 [galantamine, (4aS,6R,8aS)-3-Methoxy-11-methyl-4a,5,9,10,11,12-hexahydro-6H-benzofuro[3a,3,2-ef][2]benzazepin-6-ol] | 175 L | about 1 hour |  |  |  | 
2 | COc1ccc2c3c1OC1C[C@@H](OC(=O)c4ccccc4)C=C[C@@]31CCN(C)C2 (stereo partly drawn) [benzgalantamine, (4aS,6R,8aS)-4a,5,9,10,11,12-hexahydro-3-methoxy-11-methyl-6H[1]benzofuro[3a,3,2-ef][2]benzazepin-6 benzoate gluconate salt] |  |  | almost all values are zero or below limit of quantification (BLQ) at all times | No gastrointestinal adverse events were observed | well tolerated | up to 10%
